This is an account of results in ChEMBL document CHEMBL1201862, “PubChem BioAssay data set” (2004).

The source made the active and inactive calls.

For orientation: IC50 means the concentration needed to halve the response being measured. The EC50 is the concentration needed to bring the measured effect to its halfway point. Usually AC50 stands for the concentration giving half of the maximal activity seen.

The subject of one assay is HEK293. Put plainly: cells. The class given is functional, cell-based. The following applies: Homo sapiens.
Assay [1] deals with T1, Nuclear receptor subfamily 0 group B member 1 (Homo sapiens, UniProt P51843).
T1 sequence (P51843 whole entry): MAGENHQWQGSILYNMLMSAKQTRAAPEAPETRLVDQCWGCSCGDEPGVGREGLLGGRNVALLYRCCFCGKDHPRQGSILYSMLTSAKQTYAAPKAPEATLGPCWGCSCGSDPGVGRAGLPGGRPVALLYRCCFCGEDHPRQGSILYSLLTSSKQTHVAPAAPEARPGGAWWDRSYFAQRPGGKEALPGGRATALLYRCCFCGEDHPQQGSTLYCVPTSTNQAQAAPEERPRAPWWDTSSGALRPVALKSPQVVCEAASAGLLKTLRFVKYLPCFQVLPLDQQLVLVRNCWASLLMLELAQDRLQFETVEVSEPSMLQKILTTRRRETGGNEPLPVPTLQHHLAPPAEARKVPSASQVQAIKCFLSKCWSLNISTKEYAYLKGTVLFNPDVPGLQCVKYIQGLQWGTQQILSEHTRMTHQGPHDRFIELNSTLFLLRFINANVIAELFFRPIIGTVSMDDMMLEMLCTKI
Put plainly: Luminescence-based cell-based high throughput dose response assay for inhibitors of the orphan nuclear receptor subfamily 0, group B, member 1 (DAX1; NR0B1). [Related pubchem assays (depositor defined):AID504766, AID504790]. The format is functional.

Assay [2] is described as follows: cells. The format is functional, cell-based.
Assay [3] can be described thus: Luminescence Cell-Based Dose Response HTS to Identify Inhibitors of 5'UTR Stem-Loop Driven Prion Protein mRNA Translation in H4 Neuroglioblastoma Cells. [Related pubchem assays: 1827 (Project Summary), 1813 (Primary HTS)]. The format is functional.
The nature of assay [4]: microbe, parasite or virus in culture. The following applies: Mycobacterium tuberculosis. The format is functional.
Assay [5] in a line: cells. The format is functional, cell-based. This is another data set of the same source.
For assay [6], the target named is T2, Calpain-2 catalytic subunit (Sus scrofa, UniProt P43367).
T2 sequence (P43367 whole entry): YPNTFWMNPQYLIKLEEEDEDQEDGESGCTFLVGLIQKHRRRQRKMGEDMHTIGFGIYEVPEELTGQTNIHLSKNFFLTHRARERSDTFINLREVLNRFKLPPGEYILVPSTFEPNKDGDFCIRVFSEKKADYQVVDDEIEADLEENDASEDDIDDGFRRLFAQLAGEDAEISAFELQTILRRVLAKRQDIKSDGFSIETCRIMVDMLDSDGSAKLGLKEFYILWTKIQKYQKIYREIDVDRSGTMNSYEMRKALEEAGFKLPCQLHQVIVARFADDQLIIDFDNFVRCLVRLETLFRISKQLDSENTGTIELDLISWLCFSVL
Description: pig calpain II inhibitor potency, dose response, biochemical, fluorogenic peptide substrate (AID 1420). The format is functional.

In a further assay the test system is Jurkat. Description: antigen receptor-induced NF-kB inhibitors, dose response, Jurkat, luciferase reporter, luminescence, B- and T-cell (AID 489004).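 Also: NF-kB luciferase reporter Jurkat cells stimulated with PMA plus ionomycin.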 The class given is functional, cell-based. The following applies: Homo sapiens. On the technique in general: Reporter assays use an easily measured gene product as a stand-in for the process of interest.
The next assay deals with Troponin, cardiac muscle (Homo sapiens, UniProt P19429+P45379+P63316). Put plainly: Fluorescence-based biochemical high throughput dose response assay for activators of the calcium sensitivity of cardiac Regulated Thin Filaments (RTF). [Related pubchem assays (depositor defined):AID493008, AID493018, AID504382, AID504383]. The class given is protein-complex assay.
Assay [7] can be described thus: cytotoxicity in HEK-293T NF-kB-Luc cells, dose response, cytotoxicity control for B/T-cell NF-kB inhibitor project, cell-based, uHTS hits (AID 489019).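 Also: IC50 reflects cytotoxicity as loss of cell viability.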 The class given is functional.
Assay [8] addresses Heat shock protein HSP 90-alpha (Homo sapiens, UniProt P07900). The format is functional, organism-based.
Assay [9] is described as follows: HeLa cell cytotoxicity, dose response, cytotoxicity control for MgcRacGAP inhibitor project (AID 624300). The class given is functional.
The target of assay [10] is T3, Rac GTPase-activating protein 1 (Homo sapiens, UniProt Q9H0H5).
T3 sequence (Q9H0H5 whole entry): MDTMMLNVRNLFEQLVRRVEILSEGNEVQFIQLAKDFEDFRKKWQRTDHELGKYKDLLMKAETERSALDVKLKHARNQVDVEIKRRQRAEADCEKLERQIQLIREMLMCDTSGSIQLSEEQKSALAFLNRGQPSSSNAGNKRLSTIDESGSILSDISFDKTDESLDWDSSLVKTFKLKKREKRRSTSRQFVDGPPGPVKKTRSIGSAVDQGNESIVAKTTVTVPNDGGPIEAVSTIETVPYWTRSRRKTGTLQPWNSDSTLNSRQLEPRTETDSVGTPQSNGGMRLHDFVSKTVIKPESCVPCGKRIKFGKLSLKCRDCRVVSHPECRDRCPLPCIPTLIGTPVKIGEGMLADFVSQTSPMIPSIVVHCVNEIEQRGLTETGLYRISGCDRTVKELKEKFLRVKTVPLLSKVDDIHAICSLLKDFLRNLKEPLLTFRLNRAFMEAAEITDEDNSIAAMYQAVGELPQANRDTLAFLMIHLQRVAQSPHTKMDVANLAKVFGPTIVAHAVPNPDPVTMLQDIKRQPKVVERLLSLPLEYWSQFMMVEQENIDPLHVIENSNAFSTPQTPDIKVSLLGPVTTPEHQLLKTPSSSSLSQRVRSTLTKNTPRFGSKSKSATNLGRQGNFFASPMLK
Put plainly: MgcRacGAP GTPase-activating activity inhibitors, confirmation, biochemical, ADP Hunter fluorescence, primary and confirmatory (AID 624330). The class given is functional.

For assay [11], the target named is T4, COUP transcription factor 2 (Homo sapiens, UniProt P24468).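 Also: HEK293 cells transiently cotransfected with COUP-TFII expression vector and reporter; luciferase reporter luminescence driven by COUP-TFII from the pX2-168 reporter plasmid.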
T4 sequence (P24468 whole entry): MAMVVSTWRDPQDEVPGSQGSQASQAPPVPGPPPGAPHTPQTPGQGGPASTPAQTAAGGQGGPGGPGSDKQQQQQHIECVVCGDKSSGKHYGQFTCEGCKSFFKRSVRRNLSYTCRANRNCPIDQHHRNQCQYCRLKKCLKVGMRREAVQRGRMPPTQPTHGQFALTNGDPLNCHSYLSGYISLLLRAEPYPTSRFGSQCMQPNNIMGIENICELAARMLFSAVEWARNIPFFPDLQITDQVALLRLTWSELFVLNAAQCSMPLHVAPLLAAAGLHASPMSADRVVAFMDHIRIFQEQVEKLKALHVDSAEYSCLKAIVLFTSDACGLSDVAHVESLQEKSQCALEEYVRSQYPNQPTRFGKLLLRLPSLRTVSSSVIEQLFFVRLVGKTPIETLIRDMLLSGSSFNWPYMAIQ
Description: Luminescence-based cell-based high throughput dose response assay to identify inhibitors of COUP-TFII (NR2F2). The class given is functional.

In assay [12] the target is T5, CAAX prenyl protease 2 (Homo sapiens, UniProt Q9Y256).
T5 sequence (Q9Y256 whole entry): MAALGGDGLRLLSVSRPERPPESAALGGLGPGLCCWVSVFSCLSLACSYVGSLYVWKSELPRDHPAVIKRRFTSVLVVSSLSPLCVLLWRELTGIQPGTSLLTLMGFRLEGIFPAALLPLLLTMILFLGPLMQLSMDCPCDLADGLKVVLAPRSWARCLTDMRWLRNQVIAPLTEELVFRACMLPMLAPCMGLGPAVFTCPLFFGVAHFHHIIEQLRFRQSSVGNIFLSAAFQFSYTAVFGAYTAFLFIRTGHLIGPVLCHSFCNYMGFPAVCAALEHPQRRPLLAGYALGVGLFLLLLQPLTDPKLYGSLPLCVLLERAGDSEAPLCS
Description: human Rce1 protease inhibitors, dose response, biochemical, yeast membranes, quenched-peptide fluorescence, cherry-pick (AID 588849).

The target in a further assay is Trypsin (Sus scrofa, UniProt P00761). Description: porcine trypsin inhibitors, dose response, selectivity assay for Rce1 protease inhibitor project, biochemical, quenched peptide fluorescence, cherry-pick (AID 488789).
Chain of Trypsin (P00761 whole entry): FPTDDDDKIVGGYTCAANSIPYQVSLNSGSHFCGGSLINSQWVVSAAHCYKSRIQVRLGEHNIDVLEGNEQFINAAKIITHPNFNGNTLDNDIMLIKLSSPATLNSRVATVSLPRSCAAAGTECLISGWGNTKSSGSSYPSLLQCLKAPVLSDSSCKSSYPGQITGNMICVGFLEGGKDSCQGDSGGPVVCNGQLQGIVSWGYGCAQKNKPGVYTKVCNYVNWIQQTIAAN
For assay [13], the target named is T6, CAAX prenyl protease 2 (Saccharomyces cerevisiae S288c, UniProt Q03530).
T6 sequence (Q03530 whole entry): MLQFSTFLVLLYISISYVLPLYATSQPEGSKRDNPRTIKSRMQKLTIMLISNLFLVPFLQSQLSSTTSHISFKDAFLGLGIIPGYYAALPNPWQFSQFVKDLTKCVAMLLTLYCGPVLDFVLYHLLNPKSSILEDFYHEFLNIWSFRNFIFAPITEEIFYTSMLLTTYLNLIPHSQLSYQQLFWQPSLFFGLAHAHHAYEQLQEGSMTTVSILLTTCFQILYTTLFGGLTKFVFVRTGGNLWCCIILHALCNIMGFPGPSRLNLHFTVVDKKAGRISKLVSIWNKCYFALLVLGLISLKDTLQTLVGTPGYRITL
The format is biochemical.

Regarding `Cc1cc(NC(=O)CSc2nc(N)c(NC(=O)c3ccco3)c(O)n2)no1`, the IC50 (in the assay on HEK293; in assay [1]) was > 67.6 µM (inactive) each time.
For `CCN1/C(=C/c2ccc3cc(C)ccc3[n+]2CC)Sc2ccccc21`, the EC50 in “cells [2]” was > 350 µM (not active); in [3], > 120 µM (not active); in the assay “cells [5]”, > 350 µM (not active); at Troponin, cardiac muscle, 10.4 µM (inactive). Further, the CC50 in assay [4] was 1.92 µM (active); in [9], 12.5 µM (active). For the same molecule, the IC50 in [6] is 16.4 µM (not active); in the assay with Jurkat, 2.6 µM (active); in [7], > 80 µM (inactive); in [10], 59.5 µM (active); in [11], 1.55 µM (active). Besides, in assay [8], the AC50 is 7.73 µM (active).
As to `COc1ccc(C2SCC(C(=O)O)N2C(C)=O)cc1OC` (configuration not stated), the IC50 (in the assay with HEK293; in assay [1]) was > 67.5 µM (inactive) in each case.
Consider `Cc1ccc(CN2CCN(/N=C/c3ccccc3)CC2)cc1`, for which the IC50 (in the assay with HEK293; in [1]) was > 67.6 µM (inactive) each time.
As to `CC(=O)NN1C(=O)c2ccccc2NC1c1ccccc1` (configuration not stated), the AC50 at CAAX prenyl protease 2 [12] was > 100 µM (inactive).
`Nc1c(C(=O)NCCN2CCOCC2)c2nc3ccccc3nc2n1-c1cccc(F)c1`: the values for the AC50 on Trypsin, at CAAX prenyl protease 2 [13] and on CAAX prenyl protease 2 [12] were 12.4 µM (active), 15 µM (active) and 5.43 µM (active), respectively.
